Experiments:
COS-7 cells [1] = test: Perfusion ratio imaging of tryptophan uptake and exchange in COS-7 cells expressing FLIPW-CTYT (LAT1-like exchanger); type: cell-based; conditions: for Effect on uptake rate of 100 μM L-tryptophan: COS-7, inhibitors at 5 mM; for Tryptophan export induced by extracellular tryptophan degradation product: tryptophan-preloaded COS-7 cells, DL-HK 200–1,000 μM; for Tryptophan export from the cytosol promoted by extracellular amino acid: COS-7 loaded with tryptophan, amino acid at 100 μM
Method: (§1) Cells were cultured at 37 °C and 5% CO2.
Ratio imaging was performed on an inverted fluorescence microscope (DM IRE2, Leica; http://www.leica.com) with a Quant EM digital camera (Photometrics; http://www.photomet.com) and 20× oil immersion, 63× water immersion lenses (HC PL APO 20×/0.7 or HCX PL APO, Leica). […] A Lambda DG4 (Sutter Instruments; http://www.sutter.com) provided excitation light. Images were acquired within the linear detection range of the camera and exposure times varied between 50 and 200 ms, depending on the expression level, with software binning between 2 and 3. Fluorescence intensities for eCFP and Venus were typically in the range of 6,000–8,000 and 12,000–16,000, respectively. Typical background values were around 1,000. Cells were perfused with Tyrode's buffer supplemented with ligands at flow rates of 1.0 ml/min in a vacuum chamber (Vacu-Cell VC-MPC-TW, C&L Instruments; http://www.fluorescence.com/) with a total volume of 0.1 ml. Buffers were exchanged using an eight-way automated ValveBank (AutoMate; http://www.autom8.com/). Inhibitors BCH and α-(methylamino)isobutyric acid (MeIAB) were used at 5 mM concentrations. For determination of the substrate specificity of tryptophan exchange, all 20 amino acids were tested at 100 μM concentrations.

KB cells = test: Perfusion ratio imaging of LAT1-mediated tryptophan uptake and exchange in KB cells expressing FLIPW-CTYT; type: cell-based, human; conditions: for Export of intracellular tryptophan upon perfusion (FRET ratio decrease): 100 μM L-His, 200 μM DL-K, 200 μM DL-HK, 1,000 μM HAA
Method: as §1
Ratio imaging was performed on an inverted fluorescence microscope (DM IRE2, Leica; http://www.leica.com) with a Quant EM digital camera (Photometrics; http://www.photomet.com) and 20× oil immersion, 63× water immersion lenses (HC PL APO 20×/0.7 or HCX PL APO, Leica). Dual emission intensity ratios were simultaneously recorded using a DualView with an OI-5-EM filter set (eCFP 480/30; eYFP 535/40; Optical Insights; http://www.optical-insights.com) and Slidebook 4.2 (Intelligent Imaging Innovations; http://www.intelligent-imaging.com/). A Lambda DG4 (Sutter Instruments; http://www.sutter.com) provided excitation light. Images were acquired within the linear detection range of the camera and exposure times varied between 50 and 200 ms, depending on the expression level, with software binning between 2 and 3. Fluorescence intensities for eCFP and Venus were typically in the range of 6,000–8,000 and 12,000–16,000, respectively. Typical background values were around 1,000. Cells were perfused with Tyrode's buffer supplemented with ligands at flow rates of 1.0 ml/min in a vacuum chamber (Vacu-Cell VC-MPC-TW, C&L Instruments; http://www.fluorescence.com/) with a total volume of 0.1 ml. Buffers were exchanged using an eight-way automated ValveBank (AutoMate; http://www.autom8.com/). Inhibitors BCH and α-(methylamino)isobutyric acid (MeIAB) were used at 5 mM concentrations. For determination of the substrate specificity of tryptophan exchange, all 20 amino acids were tested at 100 μM concentrations. Analyses were repeated at least three times with similar results.

FLIPW-CTYT = molecular target: T1, FLIPW-CTYT (Escherichia coli, UniProt P0A881); test: In vitro FRET ligand titration of FLIPW-CTYT; type: binding, E. coli; conditions: for FLIPW-CTYT FRET response or interference with tryptophan binding: in vitro, unpublished data; for Kd: 20 mM MOPS pH 7.0
T1 construct: made in house; host or cells: E. coli BL21(DE3)gold
Method: (§2) The eCFP emission used for the ratio calculation was determined at 485 nm. Protein was diluted to give Venus readouts of 20,000–30,000 at a manual gain of between 70–75. By using the change in FRET ratio upon binding of ligand, affinity constants (K d) were determined by fitting the titration curves to a single-site binding isotherm: [drawing 1] with [L], ligand concentration; n, number of equal binding sites; R, ratio; R apo, ratio in the absence of ligand; and R sat, ratio at saturation with ligand. Three independent protein preparations were analyzed and each protein preparation was analyzed in triplicate.

FLIPW-TCTY = molecular target: T2, FLIPW-TCTY (Escherichia coli, UniProt P0A881); test: FRET ratio (528/485 nm, eCFP excitation 433 nm) titration of purified sensor with L-tryptophan in 20 mM MOPS, pH 7.0, fitted to a single-site binding isotherm.; conditions: n = 3
T2 construct: gene trpR
Method: as §2

[2] = tested on: LAT1-like amino acid exchanger; test: Velocity of intracellular FLIPW-CTYT FRET response by single-cell imaging versus external L-tryptophan in COS-7 cells perfused with Tyrode's buffer, histidine as counterexchange substrate, Michaelis-Menten fit.; type: cell-based; conditions: read-out: affinity of the cells for combined uptake and metabolism of tryptophan
Method: Upon perfusion with 100 μM L-tryptophan, the FRET ratio increased instantaneously, corresponding to rising levels of cytosolic tryptophan. […] This way, cells could be repeatedly loaded with tryptophan and unloaded using histidine (Figure 4A). […] Na^+ independence and BCH sensitivity are characteristic of the transport properties of LAT1- and LAT2-like amino acid counterexchangers. […] LAT2 is expressed in the proximal tubule of the kidney, so it might be expressed in COS-7 cells. In addition, LAT1 is expressed in various human tumor cell lines and, consequently, is likely to be present in COS-7 cells as well.
(§3) According to the FRET theory, an increase in Venus signal is accompanied by a decrease in eCFP signal. Ratio defined as fluorescence intensity quotient obtained with emission filters 535/40 nm over 480/30 nm. […] Error bars indicate standard deviation. […]
Ratio imaging was performed on an inverted fluorescence microscope (DM IRE2, Leica; http://www.leica.com) with a Quant EM digital camera (Photometrics; http://www.photomet.com) and 20× oil immersion, 63× water immersion lenses (HC PL APO 20×/0.7 or HCX PL APO, Leica). Dual emission intensity ratios were simultaneously recorded using a DualView with an OI-5-EM filter set (eCFP 480/30; eYFP 535/40; Optical Insights; http://www.optical-insights.com) and Slidebook 4.2 (Intelligent Imaging Innovations; http://www.intelligent-imaging.com/). […]

LAT1 = molecular target: T3, LAT1 (Homo sapiens, UniProt Q01650); test: Velocity of intracellular FLIPW-CTYT FRET response by single-cell imaging versus external L-tryptophan in human KB cells perfused with Tyrode's buffer, histidine as counterexchange substrate, Michaelis-Menten fit.; type: cell-based; conditions: read-out: affinity of KB cells for combined tryptophan uptake and metabolism under perfusion conditions
T3 construct: gene SLC7A5; endogenous transporter of KB cells expressing cytosolic FLIPW-CTYT sensor
Method: KB cells originate from a human oral squamous cell carcinoma and express only LAT1 for uptake of neutral amino acids as shown by reverse-transcriptase (RT)-PCR [37] and RNA interference (RNAi).
as §3, with “nm. (B) Effect of 5 mM BCH inhibitor on the uptake rate of 100 μM L-tryptophan. Error bars indicate standard deviation.” for “nm.”
Ratio imaging was performed on an inverted fluorescence microscope (DM IRE2, Leica; http://www.leica.com) with a Quant EM digital camera (Photometrics; http://www.photomet.com) and 20× oil immersion, 63× water immersion lenses (HC PL APO 20×/0.7 or HCX PL APO, Leica). Dual emission intensity ratios were simultaneously recorded using a DualView with an OI-5-EM filter set (eCFP 480/30; eYFP 535/40; Optical Insights; http://www.optical-insights.com) and Slidebook 4.2 (Intelligent Imaging Innovations; http://www.intelligent-imaging.com/). […] Fluorescence intensities for eCFP and Venus were typically in the range of 6,000–8,000 and 12,000–16,000, respectively. […]

FLIPW-CTY = molecular target: T4, FLIPW-CTY (Escherichia coli, UniProt P0A881); test: In vitro FRET ligand titration of FLIPW-CTY; type: binding, E. coli; conditions: for Kd: 20 mM MOPS pH 7.0, read-out: Affinity of FLIPW-CTY for tryptophan substrates
T4 construct: made in house; host or cells: E. coli BL21(DE3)gold
Method: as §2

COS-7 cells [3] = conditions: read-out: Apparent affinity constant KM for combined transport and metabolism; COS-7, 96-well microplate, Tyrode's buffer
Method: COS-7 cells were grown in Dulbecco's modified Eagle's medium (high glucose; DMEM, Gibco; http://www.invitrogen.com) with 10% fetal calf serum and 50 units (U)/ml penicillin and 50 μg/ml streptomycin (Gibco). […] Cells were cultured at 37 °C and 5% CO2. For imaging, cells were cultured in 8-well LabTekII German tissue culture glass slides (Nalge Nunc International; http://www.nalgenunc.com) and transiently transfected at 50%–70% confluence using Lipofectamine 2000 Reagent (Invitrogen) in Opti-MEM I reduced serum medium (Gibco). After transfection, cells were cultured for 16 h in Opti-MEM I followed by 3 h in growth medium prior to imaging.
Adherent COS-7 cells in 96-well microplates were washed once with 100 μl Tyrode's buffer (119 mM NaCl, 2.5 mM KCl, 2 mM CaCl2, 2 mM MgCl2, 25 mM HEPES, 30 mM glucose, pH 7.3–7.4). The initial FRET ratio was measured by recording the eCFP and Venus emissions at 485 nm and 528 nm, respectively, after excitation of eCFP at 433 nm in a Safire monochromator microplate reader (Tecan). Standard deviation of the initial ratios was less than 10%. After addition of 100 μl tryptophan in Tyrode's buffer the FRET ratio was recorded with 2-min intervals for up to 2 h. Uptake rates were determined from linear parts in the initial FRET change and fitted with the nonlinear regression program Origin 6.1 (OriginLab; http://www.originlab.com).

human LAT1 = tested on: human LAT1; design: method as in PMID 11557028; conditions: LAT1 expressed in oocytes, static conditions; cited from earlier work

T3 sequence (Q01650 whole entry, the tested form may be a part): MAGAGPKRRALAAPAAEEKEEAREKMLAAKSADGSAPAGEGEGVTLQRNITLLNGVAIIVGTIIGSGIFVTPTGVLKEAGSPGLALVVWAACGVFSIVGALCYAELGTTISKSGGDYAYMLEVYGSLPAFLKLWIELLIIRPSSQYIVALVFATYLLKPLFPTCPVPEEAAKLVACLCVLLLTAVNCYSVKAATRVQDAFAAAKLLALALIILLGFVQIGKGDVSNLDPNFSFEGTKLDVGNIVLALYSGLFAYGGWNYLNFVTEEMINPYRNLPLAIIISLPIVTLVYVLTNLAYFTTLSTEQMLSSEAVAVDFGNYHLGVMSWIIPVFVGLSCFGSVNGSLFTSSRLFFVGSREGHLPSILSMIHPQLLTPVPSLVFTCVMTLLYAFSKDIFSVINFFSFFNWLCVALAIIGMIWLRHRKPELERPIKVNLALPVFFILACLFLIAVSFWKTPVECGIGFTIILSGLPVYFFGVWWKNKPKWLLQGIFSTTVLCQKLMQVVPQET
T3 sequence (P08195 103-630 partner): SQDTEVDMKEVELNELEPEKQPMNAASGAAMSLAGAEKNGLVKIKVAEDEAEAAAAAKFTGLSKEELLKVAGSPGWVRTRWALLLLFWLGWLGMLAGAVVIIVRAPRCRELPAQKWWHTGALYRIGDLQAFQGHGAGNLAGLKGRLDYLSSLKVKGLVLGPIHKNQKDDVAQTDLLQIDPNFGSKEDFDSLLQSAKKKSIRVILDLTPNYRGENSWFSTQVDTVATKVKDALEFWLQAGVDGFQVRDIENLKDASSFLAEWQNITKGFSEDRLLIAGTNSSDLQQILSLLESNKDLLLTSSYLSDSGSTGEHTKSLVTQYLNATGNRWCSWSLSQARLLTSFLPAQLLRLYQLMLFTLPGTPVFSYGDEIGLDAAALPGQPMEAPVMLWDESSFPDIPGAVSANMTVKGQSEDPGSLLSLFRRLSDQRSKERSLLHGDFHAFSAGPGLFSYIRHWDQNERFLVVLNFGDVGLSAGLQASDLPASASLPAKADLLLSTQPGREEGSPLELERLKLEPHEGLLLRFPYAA

## NC1(C(=O)O)CC2CCC1C2 (centres unmarked) [BCH, 2-aminobicyclo-(2,2,1)-heptane-2-carboxylic acid]
COS-7 cells [1]
  Effect on uptake rate of 100 μM L-tryptophan: decreased the uptake of tryptophan
KB cells; 5 mM BCH
  Effect on LAT1-mediated uptake of 100 μM L-tryptophan: almost completely inhibited

## Nc1c(O)cccc1C(=O)O [HAA, hydroxy-anthranilic acid]
COS-7 cells [1]
  Tryptophan export induced by extracellular tryptophan degradation product: did not result in tryptophan export
KB cells
  Export of intracellular tryptophan upon perfusion (FRET ratio decrease): not
FLIPW-CTYT
  FLIPW-CTYT FRET response or interference with tryptophan binding: did not result in a FLIPW-CTYT FRET response

## Nc1c(O)cccc1C(=O)CC(N)C(=O)O (centres unmarked) [HK, 3-hydroxy-kynurenine]
COS-7 cells [1]
  Tryptophan export induced by extracellular tryptophan degradation product: tryptophan export
KB cells
  Export of intracellular tryptophan upon perfusion (FRET ratio decrease): exported
FLIPW-CTYT
  FLIPW-CTYT FRET response or interference with tryptophan binding: did not result in a FLIPW-CTYT FRET response

## Nc1ccccc1C(=O)CC(N)C(=O)O (centres unmarked) [K, kynurenine]
COS-7 cells [1]
  Tryptophan export induced by extracellular tryptophan degradation product: tryptophan export
KB cells
  Export of intracellular tryptophan upon perfusion (FRET ratio decrease): exported
FLIPW-CTYT
  FLIPW-CTYT FRET response or interference with tryptophan binding: did not result in a FLIPW-CTYT FRET response

## N[C@@H](Cc1c[nH]cn1)C(=O)O [L-histidine]
COS-7 cells [1]
  Tryptophan export from the cytosol promoted by extracellular amino acid: export of tryptophan from the cytosol
KB cells
  Export of intracellular tryptophan upon perfusion (FRET ratio decrease): decreased

## N[C@@H](Cc1c[nH]c2ccccc12)C(=O)O [L-tryptophan]
FLIPW-TCTY
  Kd: 20 µM
[2]
  Km: 2.6 µM
LAT1
  Km: 5.1 µM

## CNC(C)(C)C(=O)O [N-(methylamino)isobutyric acid]
COS-7 cells [1]
  Effect on uptake rate of 100 μM L-tryptophan: did not decrease uptake rates

## N[C@H](Cc1c[nH]c2ccccc12)C(=O)O [d-tryptophan, D-tryptophan]
FLIPW-CTYT
  Kd: 1280 ± 100 µM
FLIPW-CTY
  Kd: 3100 ± 300 µM
FLIPW-CTY; titration of FLIPW-CTY, higher concentrations than L-tryptophan
  Concentration for decrease of FRET ratio relative to L-tryptophan: about 5 fold

## CC[C@H](C)[C@H](N)C(=O)O [isoleucine]
COS-7 cells [1]
  Tryptophan export from the cytosol promoted by extracellular amino acid: able to promote tryptophan export

## N[C@@H](Cc1c[nH]c2ccc(O)cc12)C(=O)O [l-5-hydroxy-tryptophan, 5-hydroxy-L-tryptophan]
FLIPW-CTY
  Kd: 6000 ± 800 µM

## Cc1ccc2[nH]cc(C[C@H](N)C(=O)O)c2c1 [l-5-methyl-tryptophan, 5-methyl-L-tryptophan]
FLIPW-CTYT
  Kd: 25 ± 2 µM
FLIPW-CTY
  Kd: 60 ± 10 µM

## N[C@@H](Cc1c[nH]c2ccccc12)C(=O)O [l-tryptophan, L-tryptophan]
COS-7 cells [1]; COS-7, perfusion
  Affinity of the cells for combined uptake and metabolism of tryptophan: 2.6 ± 1.1 µM
COS-7 cells [3]
  Km: 0.88 ± 0.27 µM
KB cells; perfusion conditions
  Affinity for combined tryptophan uptake and metabolism: 5.1 ± 1.0 µM
FLIPW-CTYT
  Kd: 100 ± 14 µM
Human LAT1
  Reported affinity of human LAT1 for tryptophan uptake: 21 µM
FLIPW-CTY
  Kd: 220 ± 20 µM

## CC(C)C[C@H](N)C(=O)O [leucine]
COS-7 cells [1]
  Tryptophan export from the cytosol promoted by extracellular amino acid: able to promote tryptophan export

## CSCC[C@H](N)C(=O)O [methionine]
COS-7 cells [1]
  Tryptophan export from the cytosol promoted by extracellular amino acid: able to promote tryptophan export

## N[C@@H](Cc1ccccc1)C(=O)O [phenylalanine]
COS-7 cells [1]
  Tryptophan export from the cytosol promoted by extracellular amino acid: able to promote tryptophan export

## N[C@@H](Cc1ccc(O)cc1)C(=O)O [tyrosine]
COS-7 cells [1]
  Tryptophan export from the cytosol promoted by extracellular amino acid: able to promote tryptophan export

## CC(C)[C@H](N)C(=O)O [valine]
COS-7 cells [1]
  Tryptophan export from the cytosol promoted by extracellular amino acid: able to promote tryptophan export
